# Assay results reported in ChEMBL document CHEMBL4325834, “De Novo Molecular Design of a Novel Octapeptide That Inhibits In Vivo Melanogenesis and Has Great Transdermal Ability” (J Med Chem, 2018).
# The source made the active and inactive calls. The calls are words filed in the database; no cut-off is given here. Where a SMILES comes first, the peptide text is derived from it.
# Columns and labels:
# [1] = Antioxidant activity assessed as DPPH free radical scavenging activity at 80 uM after 30 mins relative to control; type: functional
# [2] = Antioxidant activity assessed as ABTS radical scavenging activity at 80 uM after 10 mins relative to control; type: functional
# [3] = Reducing power of the compound assessed as reducing Fe3+ power at 80 uM using K3Fe(CN)6 in pH 6.6 phosphate buffer relative to control
# Tyrosinase = target: T1, Tyrosinase (Agaricus bisporus, UniProt O42713); assay: Inhibition of mushroom tyrosinase using L-dopa as substrate assessed as reduction in dopachrome production after 20 mins by spectrophotometry
# T1 sequence (O42713 whole entry): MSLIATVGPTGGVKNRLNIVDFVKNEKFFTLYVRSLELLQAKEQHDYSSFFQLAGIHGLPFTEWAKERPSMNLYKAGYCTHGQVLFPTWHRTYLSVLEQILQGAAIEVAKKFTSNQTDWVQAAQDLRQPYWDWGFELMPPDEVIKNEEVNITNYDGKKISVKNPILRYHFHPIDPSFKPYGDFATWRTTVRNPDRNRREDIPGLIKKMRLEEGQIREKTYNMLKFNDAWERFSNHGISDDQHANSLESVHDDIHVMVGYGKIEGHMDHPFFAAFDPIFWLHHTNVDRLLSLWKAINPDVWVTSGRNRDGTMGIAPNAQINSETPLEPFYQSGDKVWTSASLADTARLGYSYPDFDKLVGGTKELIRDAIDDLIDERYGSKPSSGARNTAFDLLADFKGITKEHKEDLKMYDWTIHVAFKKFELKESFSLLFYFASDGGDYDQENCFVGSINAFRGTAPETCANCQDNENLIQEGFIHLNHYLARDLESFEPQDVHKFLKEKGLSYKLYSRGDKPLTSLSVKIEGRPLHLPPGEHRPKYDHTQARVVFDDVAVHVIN
# [4] = Hemolytic activity against human erythrocytes assessed as amount of hemoglobin released from lysed cells up to 150 uM relative to control; type: ADME, cell-based, Erythrocyte; details: read-out: Activity
# B16 [5] = assay: Cytotoxicity against mouse B16 cells up to 150 uM by MTT assay relative to control; type: cell-based
# HaCaT = assay: Cytotoxicity against human HaCaT cells up to 150 uM by MTT assay relative to control; type: cell-based
# [6] = target: T2, Tyrosinase (Mus musculus) (UniProt P11344); assay: Inhibition of TYR activity in mouse B16 cells assessed as increase in whitening at 20 uM preincubated for 72 hrs followed L-dopa substrate addition and measured after 4 hrs by fluorescence microscopy; type: cell-based
# T2 sequence (whole entry): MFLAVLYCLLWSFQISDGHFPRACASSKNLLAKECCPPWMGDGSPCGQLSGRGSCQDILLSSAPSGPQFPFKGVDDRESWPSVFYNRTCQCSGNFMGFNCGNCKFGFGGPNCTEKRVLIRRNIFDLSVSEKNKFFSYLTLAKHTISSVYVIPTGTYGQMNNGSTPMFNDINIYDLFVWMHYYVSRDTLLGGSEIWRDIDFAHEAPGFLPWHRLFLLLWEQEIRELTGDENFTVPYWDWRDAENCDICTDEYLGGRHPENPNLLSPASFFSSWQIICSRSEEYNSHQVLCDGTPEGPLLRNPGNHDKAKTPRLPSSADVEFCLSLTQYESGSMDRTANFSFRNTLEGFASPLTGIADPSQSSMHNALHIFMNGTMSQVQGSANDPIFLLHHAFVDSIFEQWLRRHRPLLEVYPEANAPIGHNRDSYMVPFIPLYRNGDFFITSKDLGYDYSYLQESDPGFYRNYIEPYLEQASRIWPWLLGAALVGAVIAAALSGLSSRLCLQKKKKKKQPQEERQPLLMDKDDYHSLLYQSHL
# [7] = target: T2, Tyrosinase (Mus musculus); assay: Inhibition of TYR activity in mouse B16 cells assessed as effect on pallet after exfoliation at 20 uM preincubated for 72 hrs followed L-dopa substrate addition and measured after 4 hrs by fluorescence microscopy; type: cell-based
# [8] = target: T2, Tyrosinase (Mus musculus); assay: Inhibition of TYR activity in mouse B16 cells assessed as melanin levels post exfoliation at 20 uM after 72 hrs by spectrophotometric analysis relative to control; type: cell-based; parameters: scale not given: the % may be the effect or the level left
# [9] = target: T2, Tyrosinase (Mus musculus); assay: Inhibition of TYR activity in mouse B16 cells 20 uM using L-dopa as substrate after 72 hrs relative to control; type: cell-based
# B16 [10] = assay: Downregulation of TYR protein expression in mouse B16 cells after 72 hrs by Western blot analysis; type: functional, cell-based
# B16 [11] = assay: Downregulation of MITF protein expression in mouse B16 cells after 72 hrs by Western blot analysis; type: functional, cell-based
# [12] = target: T2, Tyrosinase (Mus musculus); assay: Inhibition of TYR activity in mouse B16 cells assessed as reduction in melanin levels at 20 uM after 24 hrs by spectrophotometric analysis relative to control; type: cell-based
# [13] = target: T3, Tyrosinase (Agaricus bisporus) (UniProt O42713); assay: Potency index, ratio of IC50 for arbutin to IC50 for test compound for inhibition of mushroom tyrosinase using L-dopa as substrate assessed as reduction in dopachrome production after 20 mins by spectrophotometry
# T3 sequence (whole entry): T1 sequence (O42713 whole entry)
# [14] = target: T3, Tyrosinase (Agaricus bisporus); assay: Inhibition of mushroom tyrosinase using L-dopa as substrate assessed as reduction in L-dopa oxidation at IC50 by spectrophotometry
smiles,measurement,setting,value
CC(C)[C@H](NC(=O)[C@H](CO)NC(=O)[C@H](CCCNC(=N)N)NC(=O)[C@H](CS)NC(=O)[C@@H](NC(=O)[C@H](CCCNC(=N)N)NC(=O)[C@@H](N)Cc1ccccc1)[C@@H](C)O)C(=O)N[C@@H](CS)C(=O)O (H-FRTCRSVC-OH),Activity,[1],94%
same,Activity,[2],84%
same,Activity,[3],0.25
same,IC50,Tyrosinase,73 µM
same,hemolysis,[4],3%
same,Activity,B16 [5],3%
same,Activity,HaCaT,2%
same,inhibition,[6],Active
same,Activity,[7],Active
same,Activity,[8],63.5%
same,inhibition,[9],16%
same,inhibition,B16 [10],Active
same,inhibition,B16 [11],Active
same,inhibition,[12],Active
same,Ratio IC50,[13],10
same,inhibition,[14],Active
